# Reference: patent US20050209278A1, “Piperidinyl- and piperazinyl-sulfonylmethyl hydroxamic acids and their use as protease inhibitors” (priority 2002, published 2005)
# Read-outs that look alike come from different tables or passages of the source.
# What was measured:
# MMP-9 = biological target: T1, MMP-9 (Homo sapiens, UniProt P14780); test: In vitro MMP inhibition, Ki determination (fluorogenic substrate II); format: biochemical
# T1 construct: made in house; host or cells: MMP-9-transfected HT1080 cells (spent media)
# T1 sequence (P14780 107-707 limits assumed): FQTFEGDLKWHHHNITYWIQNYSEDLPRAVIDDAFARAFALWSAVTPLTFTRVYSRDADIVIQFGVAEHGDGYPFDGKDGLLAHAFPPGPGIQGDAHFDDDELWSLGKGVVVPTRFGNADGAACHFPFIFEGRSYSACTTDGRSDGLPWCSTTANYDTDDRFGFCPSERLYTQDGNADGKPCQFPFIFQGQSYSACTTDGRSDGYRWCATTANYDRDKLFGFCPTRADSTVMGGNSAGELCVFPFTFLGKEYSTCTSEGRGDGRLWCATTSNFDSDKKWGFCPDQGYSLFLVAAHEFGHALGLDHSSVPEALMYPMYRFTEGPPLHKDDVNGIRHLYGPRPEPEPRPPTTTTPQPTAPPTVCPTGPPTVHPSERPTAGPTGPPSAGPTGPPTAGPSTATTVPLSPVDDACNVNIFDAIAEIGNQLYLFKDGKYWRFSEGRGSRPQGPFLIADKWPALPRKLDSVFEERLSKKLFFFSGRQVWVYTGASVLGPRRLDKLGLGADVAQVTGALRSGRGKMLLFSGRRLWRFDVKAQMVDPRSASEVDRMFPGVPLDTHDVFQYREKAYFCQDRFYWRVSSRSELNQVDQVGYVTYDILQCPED
# Outline: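 HT1080-derived MMP-9, activated with APMA, trypsin or MMP-3, incubated 1 hr at room temperature with inhibitor and 4 μM fluorogenic substrate II (at or below Km) in pH 7.5 Tris/NaCl/CaCl2 buffer; ex 330/em 420 nm. Ki from Morrison-equation regression, without substrate correction.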
# MMP-13 = biological target: T2, MMP-13 (Homo sapiens, UniProt P45452); test: as above; format: biochemical; settings: read-out: MMP-13 Ki
# T2 construct: made in house; host or cells: baculovirus / insect cells
# Outline: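 Room-temperature, 1 h incubation of APMA-activated recombinant human MMP-13 with 4 μM quenched substrate II (cleaved at Gly-Leu) in pH 7.5 Tris/NaCl/CaCl2 buffer. Inhibition appears as a slowed rise in 330/420 nm fluorescence. Single low enzyme and substrate levels were used for Ki.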
Ki (MMP-9; value not in parenthesis) [nM],Ki (MMP-13; value not in parenthesis) [nM],Ki (MMP-9; value outside parentheses) [nM],Ki (MMP-13; value outside parentheses) [nM],Compound
0.52,0.25,,,O=C(NO)C1(S(=O)(=O)N2CCN(c3ncc(-c4ccc(Cl)cc4)cn3)CC2)CCOCC1 [Example 66]
0.74,1.88,,,CCCCc1cnc(N2CCN(S(=O)(=O)C3(C(=O)NO)CCOCC3)CC2)nc1 [Example 105]
0.16,0.21,,,CCCCc1ccc(N2CCN(S(=O)(=O)C3(C(=O)NO)CCOCC3)CC2)nc1 [Example 168]
,,4.86,1.09,CCc1ccc(-c2ccc(C3CCN(S(=O)(=O)C4(C(=O)NO)CCOCC4)CC3)nc2)cc1 [Example 393]
,,0.09,0.54,CCCCc1ccc(C2CCN(S(=O)(=O)C3(C(=O)NO)CCN(CCOC)CC3)CC2)nc1 [Example 397]
,,5.67,0.15,O=C(NO)C1(S(=O)(=O)N2CCC(c3ccc(OCc4ccccc4)cn3)CC2)CCOCC1 [Example 398]
,,0.57,0.04,N#Cc1ccc(-c2cnc(N3CCN(S(=O)(=O)C4(C(=O)NO)CCOCC4)CC3)s2)cc1 [Example 399]
,,1.4,0.28,CCCC#Cc1cnc(N2CCN(S(=O)(=O)C3(C(=O)NO)CCOCC3)CC2)s1 [Example 400]
,,4.22,9.05,CCCCCC/C=C\C1CCN(S(=O)(=O)C2(C(=O)NO)CCOCC2)CC1 [Example 401]
,,0.19,0.58,CCCCCC/C=C/C1CCN(S(=O)(=O)C2(C(=O)NO)CCOCC2)CC1 [Example 402]
,,7.37,2.47,O=C(NO)C1(S(=O)(=O)N2CCC(COCc3ccc(C(F)(F)F)cc3)CC2)CCOCC1 [Example 403]
,,2.29,0.33,O=C(NO)C1(S(=O)(=O)N2CCC(COCc3ccc(OC(F)(F)F)cc3)CC2)CCOCC1 [Example 404]
,,3.39,0.18,O=C(NO)C1(S(=O)(=O)N2CCC(COCc3ccc(SC(F)(F)F)cc3)CC2)CCOCC1 [Example 405]
,,0.76,1.28,CCCCCCCOC1CCN(S(=O)(=O)C2(C(=O)NO)CCOCC2)CC1 [Example 406]
,,1.9,0.78,O=C(NO)C1(S(=O)(=O)N2CCC(c3ccc(-c4cccs4)c(F)c3)CC2)CCOCC1 [Example 407]
,,10.2,11,O=C(NO)C1(S(=O)(=O)N2CCC(c3ccc(N4CCCC4)cn3)CC2)CCOCC1 [Example 408]
,,13.6,22.3,O=C(NO)C1(S(=O)(=O)N2CCC(c3ccc(-c4ccccn4)cn3)CC2)CCOCC1 [Example 409]
,,0.55,0.2,CCCCOc1ccc(C2CCN(S(=O)(=O)C3(C(=O)NO)CCOCC3)CC2)nc1 [Example 410]
,,2.04,7.75,CCC(F)(F)CCc1ccc(C2CCN(S(=O)(=O)C3(C(=O)NO)CCOCC3)CC2)cn1 [Example 411]
,,> 10000,> 10000,Cc1ccc(-c2csc(N3CCN(S(=O)(=O)C4(C(=O)NO)CCOCC4)CC3)n2)cc1 [Example 412]
,,> 10000,4830,Cc1cccc(-c2csc(N3CCN(S(=O)(=O)C4(C(=O)NO)CCOCC4)CC3)n2)c1 [Example 413]
,,> 10000,2420,O=C(NO)C1(S(=O)(=O)N2CCN(c3nc(-c4ccccc4)cs3)CC2)CCOCC1 [Example 415]
,,1.49,1.35,Cc1ccc(-c2ccc(C3CCN(S(=O)(=O)C4(C(=O)NO)CCOCC4)CC3)nc2)s1 [Example 416]
,,4.1,3.84,O=C(NO)C1(S(=O)(=O)N2CCC(c3ccc(-c4cccc(F)c4)cn3)CC2)CCOCC1 [Example 417]
,,1.86,0.46,O=C(NO)C1(S(=O)(=O)N2CCC(c3ccc(OCCC(F)(F)F)cn3)CC2)CCOCC1 [Example 418]
,,112,34,O=C(NO)C1(S(=O)(=O)N2CCN(c3ccc(-c4nn[nH]n4)cc3)CC2)CCOCC1 [Example 419]
,,80.3,175,CCCCc1ccc(C2(O)CCN(S(=O)(=O)C3(C(=O)NO)CCOCC3)CC2)nc1 [Example 420]
